# According to the METLIN SMRT retention time set (Domingo-Almenara et al. 2019):
# Assay: gradient 5% acetonitrile 3 min, to 50% in 2 min, to 85% in 15 min, held 3 min, 100 µL/min
# Conditions: column: Zorbax Extend-C18 2.1 x 50 mm; eluents: water / acetonitrile, 0.1% formic acid
# How it was run: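 Over 3 months, pure standards in mixtures of ~100 molecules were run by HPLC coupled to a quadrupole time-of-flight mass spectrometer in positive and negative ionization mode. The column was a Zorbax Extend-C18 (2.1 × 50 mm, 1.8 μm) at 100 μL/min, eluted with water and acetonitrile each holding 0.1% formic acid, with 40 μL dead and 900 μL dwell volumes. Retention time was determined from adduct peaks chosen by software and checked manually.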
row,SMILES,RP-LC retention time [s]
1,CCCN(CCC)S(=O)(=O)c1ccc(C(=O)Nc2nc(-c3ccc(OC)cc3)c(C)s2)cc1,1330
2,CCOC(=O)CCNC(=O)N1CCC(OC2CCN(Cc3ccccc3)CC2)CC1,607
3,O=c1c(NC2CCCC2)nc2ccncc2n1Cc1ccccc1,682
4,Cc1cc(=O)n(CC(=O)Nc2ccc(F)cc2Cl)c(N2CCCCC2)n1,718
5,Cc1ccc(-c2cc(C(=O)Nc3ccc4c(c3)CCC(=O)N4)c3ccccc3n2)cc1C,949
6,Cc1noc(-c2ccc(OC3CN(C(=O)C4CCOC4)C3)cc2)n1 (centres undefined),695
7,COc1cc2c(cc1OC)[N+]([O-])=C(c1ccccc1)C2=O,1030
8,COc1ccc2c(c1)C1(CCN(C(=O)CC(C)C)C1)C(=O)N2C (centres undefined),722
9,COC(=O)C1CCN(C(=O)c2cccnc2-c2nc3ccccc3s2)CC1,747
10,O=C(NCc1ccccc1Cl)c1c(O)c2cccnc2n(-c2cccc(F)c2)c1=O,1230
11,CC1CCN(c2cc(-n3cnc(C(=O)N4CCN(c5ncccn5)CC4)c3)ncn2)CC1,880
12,COc1ccc(-c2nnc(Cc3nc(-c4ccc(C)cc4)no3)o2)cc1,1010
13,Cc1nn(-c2ccc(Cl)cc2)c(C)c1S(=O)(=O)Nc1ccc(S(N)(=O)=O)cc1,812
14,O=C(Cc1ccccc1Cl)N1CCN(Cc2noc3ccccc23)CC1,739
15,CC12CC(NC(=O)N1c1cccc(C(=O)N3CCOCC3)c1)c1ccccc1O2 (centres undefined),663
16,CCc1nc2cccnc2n1CCN1CCN(C(=O)Nc2ccc(Br)cc2F)CC1,624
17,C(#Cc1ccccc1)CN1CCN(c2ccccn2)CC1,553
18,NS(=O)(=O)c1cccnc1Nc1cccc(C(F)(F)F)c1,932
19,CC(C)(C)c1csc(-c2csc(S(=O)(=O)NC3CCCCC3)c2)n1,1320
20,COc1ccc(-c2cc3c(=O)n(CC(=O)N4CCN(c5ccccn5)CC4)ncn3n2)cc1,641
21,Cc1oc(C2CCN(S(=O)(=O)c3ccc(F)cc3)CC2)nc1C(=O)N1CCOCC1,789
22,Cc1ccc(-c2cn3c(CC(=O)N4CCN(c5ccc(Cl)cc5)CC4)csc3n2)cc1C,997
23,CCOc1cccc(C2CC(c3ccccc3)=NC3(CCN(C(C)C)CC3)N2)c1O (centres undefined),612

row,SMILES,RP-LC retention time [s]
1,CC(C)c1ccccc1OCC(=O)Nc1cnn(C)c(=O)c1N1CCOCC1,955
2,CCOc1ccc(Nc2c(C(=O)N3CCCCC3C)cnc3nc(C)ccc23)cc1 (centres undefined),668
3,CN(C)CCNC(=O)C(C)(C)Oc1ccc(Cl)cc1,629
4,CCn1cc(S(=O)(=O)N2CCC[C@H]2c2nc(-c3ccc(F)cc3)n[nH]2)cn1,714
5,CC(C)Cn1c(=O)c2nscc2n(CC(=O)NC(C)C)c1=O,693
6,COc1ccc(N2C(=O)CSC2c2ccc(Cl)cc2)cc1 (centres undefined),877
7,CSc1cccc(NC(=O)N2CCCC2c2nc(-c3ccc(F)cc3)no2)c1 (centres undefined),1040
8,Cc1ccccc1Cn1c(CN2CCC(C(=O)NCc3cccs3)CC2)cc2ccccc21,790
9,Nc1nnc(C2CC(=O)N(c3ccccc3)C2)o1 (centres undefined),570
10,O=C(CC1CCCCC1)N1CCN(c2cc(-c3ccc(Cl)cc3)[nH]n2)CC1,936
11,CN(C)c1ccc(C(=O)N2CCN(c3cc(-c4ccc(Cl)cc4)[nH]n3)CC2)cc1,865
12,Cc1cc(C2CCCN2C(=O)Nc2ccc(C)c(C)c2)no1 (centres undefined),857
13,CCC(C)NC(=O)C1CCCN(c2cnc3nccnc3c2)C1 (centres undefined),608
14,COc1ccc(NC(=O)N2CCC(c3nc4cccnc4n3C)C2)cc1 (centres undefined),617
15,CCn1c(SCC(=O)N(C)C)nnc1-c1ccc2c(c1)OCCCO2,671
16,Cc1nc2ccccn2c(=O)c1Cc1nnc(SCC(=O)NCc2nc3ccccc3[nH]2)n1C,544
17,O=C(NCc1cccs1)C1CCN(C(=O)C2Sc3ccccc3NC2=O)CC1 (centres undefined),714
18,Cc1ccc(-c2noc(C3CCCN3C(=O)C3CC(=O)N(c4cccc(Cl)c4)C3)n2)cc1 (centres undefined),1040
19,Cc1ncc2c(n1)C[C@@H]1CC[C@H]2N1C(=O)Nc1ccc(C)c(F)c1,728
20,Cc1nc(N2CCCC(C(=O)NC(C)C)C2)c2c(C)c(C)oc2n1 (centres undefined),712
21,O=C(Cc1ccc(Cl)cc1)Nc1nc(-c2ccccc2)cs1,1020
22,CCCCOc1ccc(C(=O)Nc2cccc3c2C(=O)NC3=O)cc1,1020
23,CCc1ccccc1NC(=O)N1CCC(n2cnc3c(C)cccc3c2=O)CC1,853

row,SMILES,RP-LC retention time [s]
1,COC(=O)C1=CN(c2ccc(OC)cc2OC)c2cc(F)ccc2S1(=O)=O,875
2,CNC(=O)C1CN(C(=O)c2cccc(C(F)(F)F)c2)CC12CCCC2 (centres undefined),749
3,CCOC(=O)C1CCN(S(=O)(=O)c2ccc3onc(C(=O)N4CCCC4)c3c2)CC1,993
4,Cc1noc([C@@H]2CN(Cc3cn[nH]c3-c3ccccc3)C[C@H]2CO)n1,582
5,O=C1C2N=NN(Cc3nc(-c4ccc(Cl)cc4)no3)C2C(=O)N1c1ccc2c(c1)CCC2 (centres undefined),1160
6,Cn1nc(C(=O)N2CCOCC2)c2c1CCN(C(=O)Nc1ccc(F)cc1F)C2,653
7,O=S(=O)(c1cccc2nsnc12)N1CCCC(Cc2noc(C3CC3)n2)C1 (centres undefined),923
8,COCc1noc(C2CCCCN2C(=O)CCc2ccccc2OC)n1 (centres undefined),902
9,COc1ccc(NC(=O)Cn2ccnc2-c2ccnc(N3CCOCC3)c2)c(OC)c1,613
10,CC1CCN(S(=O)(=O)c2cc(-c3ccc(=O)[nH]n3)cs2)CC1,772
11,Cc1ccccc1Nc1c(-c2ccc(Cl)cc2)nc2ccc(Br)cn12,1090
12,COc1ccc(NC(=O)c2sc(-c3cn(C)c4ncccc34)nc2C)cc1,867
13,CC1CCCCN1CCCNC(=O)CC1CCN(C(=O)C2CCCCC2)CC1 (centres undefined),605
14,Cc1ccc(CNC(=O)c2cc3n(n2)CC(C)(C(=O)NCc2ccccc2)N(C)C3=O)cc1 (centres undefined),766
15,COc1ccc(NC(=O)N2CCC3(CC2)CN(c2ccccc2)C3=O)cc1OC,771
16,COc1ccc(N2CC(NC(=O)c3ccc(S(=O)(=O)N(C)C)cc3)CC2=O)cc1OC (centres undefined),634
17,COc1ccccc1-c1noc(C2CCCN2C(=O)Nc2cccc(C#N)c2)n1 (centres undefined),823
18,O=C(c1ccc(Br)cc1)N1CCc2nc[nH]c2C1,578
19,Cc1ccc(-c2noc(C3CC3)n2)cc1S(=O)(=O)N1CCC(C(=O)Nc2ncccc2C)CC1,768
20,COc1ccc(N2CC(c3noc(-c4ccc(OC(F)(F)F)cc4)n3)CC2=O)cc1 (centres undefined),1070
21,Cn1nc(-c2nc(-c3ccccc3F)no2)c2c1CCN(C(=O)C1(c3ccccc3)CC1)C2,1010
22,O=C(NC1CCN(c2cc(-c3ccc(Cl)cc3)[nH]n2)C1)c1cccc(OC(F)(F)F)c1 (centres undefined),862
23,CC(C)CC(=O)Nc1ccc(OCc2cc(C(=O)NC3CC3)no2)cc1,747

row,SMILES,RP-LC retention time [s]
1,COCCN1C(=O)c2ccccc2C(C(=O)Nc2cccc(C)n2)C12CCCCC2 (centres undefined),828
2,CCN1CCCC1CNC(=O)C(C)n1c2ccccc2c2cnn(C)c(=O)c21 (centres undefined),615
3,CCOC(=O)c1ccccc1NC(=O)N1CCC(C(=O)NCc2csc(-c3ccccc3)n2)CC1,993
4,Cc1c(Cc2ccc3c(c2)OCO3)sc(NC(=O)c2ccc([N+](=O)[O-])s2)c1C#N,1070
5,Cc1noc([C@@H]2CC(F)(F)CN2C(=O)c2ocnc2C)n1,685
6,Cc1nnc(C2CC3(CCN(CC(C)C)CC3)CN2CCc2ccccc2)o1 (centres undefined),612
7,CCN(CC)S(=O)(=O)c1c[nH]c(=O)[nH]c1=O,563
8,O=C(Cn1cnc(-c2noc(-c3ccc(F)cc3)n2)c1)NC1CCCCC1,862
9,Cc1cc(SCC(N)=O)nc2ccccc12,664
10,O=C(Nc1cc(F)ccc1F)N1CCCC1c1nc(-c2ccccc2)no1 (centres undefined),1020
11,Cc1nc(-c2ccc(OC3CCN(C(=O)c4[nH]nc5c4COc4ccccc4-5)C3)cc2)no1 (centres undefined),846
12,COc1ccc(C2Cn3nnc(-c4nc(-c5ccccc5C)no4)c3CO2)cc1 (centres undefined),1200
13,CN1C(=O)N(C)C2(CCN(C(=O)Cc3ccc(Cl)cc3)CC2)C1=O,686
14,CCOC(=O)N1CCC(Nc2c(C(=O)OC)c(=O)[nH]c3ccc(F)cc23)CC1,705
15,CN(C)CCNC(=O)C1CCN(c2nc3ccc(-c4ccccc4)nc3s2)CC1,667
16,Cc1cn(-c2cc(NC(=O)c3ccc(C)c(Nc4nccc(-c5cccnc5)n4)c3)cc(C(F)(F)F)c2)cn1,776
17,O=C(NCCc1csc(-c2ccccc2)n1)C1CCN(S(=O)(=O)c2cccs2)CC1,776
18,Cc1nc(OCC(=O)Nc2ccc(Cl)c(C(F)(F)F)c2)c2ccccc2n1,892
19,COc1ccc(NC(=O)C2CC(=O)N(c3ccc4c(c3)CCN4C(C)=O)C2)cc1OC (centres undefined),642
20,CCn1cc(C(=O)Nc2ccc(F)c(F)c2)c(S(=O)(=O)N2CCSCC2)n1,1010
